The record followed here is patent US12528818B2, “Compositions and methods for inhibition of RAS” (Leidos Biomedical Research, Inc., priority 2021, dated 2026).

Where only a bound is given, the exact number is not on record here.

One assay deals with pERK in NCI-H358 cells. In words: Cell-based pERK HTRF assay (pERK inhibition in H358 cells). The settings on record: Homo sapiens, NCI-H358, 0.5 h, pERK inhibition IC50, NCI-H358 cells, 30 min incubation; read-out: PERK in H358 cell. On the technique in general: In TR-FRET formats the signal depends on donor and acceptor labels being close together.
Turning to `C=CC(=O)N1CCC(N(C)c2nc(OC[C@@]34CCCN3C[C@H](F)C4)nc3c(C#N)c(-c4ccc(F)c5sc(N)c(C#N)c45)ccc23)[C@H]1COC` (stereo partly drawn) [Compound 394], the IC50 is 0.1 to 1 µM.

For `C=CC(=O)N1CC(N(C)c2nc(OC[C@@]34CCCN3C[C@H](OC)C4)nc3c(F)c(-c4ccc(F)c5sc(N)nc45)c(C(F)(F)F)cc23)C1` [Compound 201], the IC50 lay in the range of 0.1 to 1 µM.

Take `C=CC(=O)N1CC[C@@H](N(C)c2nc(OC[C@@]34CCCN3C[C@H](F)C4)nc3c(Cl)c(-c4ccc(F)c5sc(N)nc45)c(C(F)(F)F)cc23)C1` (single isomer, unassigned) [Compound 302]: the IC50 was < 0.1 µM.

`C=CC(=O)N1C[C@H](C)N(c2nc(OC[C@@]34CCCN3C[C@H](F)C4)nc3cc(-c4c(F)cc(F)c5sc(N)nc45)c(C(F)(F)F)cc23)C[C@H]1C` [Compound 298, 1-((2R,5S)-4-(7-(2-amino-5,7-difluorobenzo[d]thiazol-4-yl)-2-(((2R,7aS)-2-fluorotetrahydro-1H-pyrrolizin-7a(5H)-yl)methoxy)-6-(trifluoromethyl)quinazolin-4-yl)-2,5-dimethylpiperazin-1-yl)prop-2-en-1-one]: the IC50 was < 0.1 µM.

`C=CC(=O)N1CCC(N(C)c2ncnc3c(F)c(-c4ccc(F)c5sc(N)c(C#N)c45)ccc23)[C@H]1C` (stereo partly drawn) [Compound 462]: the IC50 is > 1 µM.

Consider `C=CC(=O)N1C2CC1CN(c1nc(OCC34CCCN3CCC4)nc3c(F)c(-c4ccc(F)c5sc(N)nc45)c(Cl)cc13)C2` [Compound 161], for which the IC50 was > 1 µM.

In the case of `C=CC(=O)N1CC(Nc2ncnc3c(F)c(-c4ccc(F)c5sc(N)nc45)cc(OC)c23)C1` [Compound 69, 1-(3-((7-(2-amino-7-fluorobenzo[d]thiazol-4-yl)-8-fluoro-5-methoxyquinazolin-4-yl)amino)azetidin-1-yl)prop-2-en-1-one], the IC50 was > 1 µM.

Turning to `C=CC(=O)N1CC(N(c2nc(OC[C@]34CCCN3C[C@H](F)C4)nc3c(F)c(-c4ccc(F)c5sc(N)nc45)c(C(F)(F)F)cc23)C2CC2)C1` [Compound 178, 1-(3-((7-(2-amino-7-fluorobenzo[d]thiazol-4-yl)-8-fluoro-2-(((2R,7aR)-2-fluorotetrahydro-1H-pyrrolizin-7a(5H)-yl)methoxy)-6-(trifluoromethyl)quinazolin-4-yl)(cyclopropyl)amino)azetidin-1-yl)prop-2-en-1-one], the IC50 fell in the range of 0.1 to 1 µM.

For `C=CC(=O)N1C[C@@H](F)[C@@H](N(C)c2nc(OC[C@@H]3CC4(CC4)CN3C)nc3cc(-c4ccc(F)c5sc(N)nc45)c(C(F)(F)F)cc23)C1` [Compound 351], the IC50 is < 0.1 µM.

Turning to `C=CC(=O)N1C[C@@H](F)[C@@H](N(C)c2nc(OC[C@@]34CCCN3C[C@H](F)C4)nc3c(F)c(-c4ccc(F)c5sc(N)c(C#N)c45)c(C(F)(F)F)cc23)C1` [Compound 316], the IC50 is < 0.1 µM.

Regarding `C=CC(=O)N1CCC(N(C)c2nc(OC[C@@H]3CC4(CC4)CN3C)nc3c(F)c(-c4ccc(F)c5sc(N)c(C#N)c45)c(C(F)(F)F)cc23)[C@H]1COC` (stereo partly drawn) [Compound 456], the IC50 is < 0.1 µM.

For the compound `C=CC(=O)N1C[C@H](C)N(c2nc(OC[C@@]34CCCN3C[C@H](OC)C4)nc3c(F)c(-c4ccc(F)c5sc(N)c(C#N)c45)c(Cl)cc23)C[C@H]1C` [Compound 367], the IC50 was < 0.1 µM.

In the case of `C=C(F)C(=O)N1CC[C@@H](N(C)c2nc(OC[C@@]34CCCN3C[C@H](F)C4)nc3c(F)c(-c4ccc(F)c5sc(N)nc45)c(C(F)(F)F)cc23)C1` [Compound 308], the IC50 is < 0.1 µM.

Staying with this assay, now noted: pERK inhibition IC50, NCI-H358 cells, 30 min incubation; read-out: PERK in H358 cell.
Consider `C=CC(=O)N1CC[C@@H](N(C)c2nc(OC[C@@H]3CC4(CC4)CN3C)nc3c(F)c(-c4ccc(F)c5sc(N)nc45)c(C(F)(F)F)cc23)C1` (atropisomer, axis not shown) [Compound 256], for which the IC50 is < 0.1 µM.

On to `C=CC(=O)N1C[C@H](C)N(c2nc(OC[C@@]34CCCN3C[C@H](F)C4)nc3c(F)c(-c4ccc(F)c5sc(N)nc45)c(C(F)(F)F)cc23)C[C@H]1C` (atropisomer, axis not shown) [Compound 267], for which the IC50 is < 0.1 µM.
